The subject of the assay is Mycobacterium tuberculosis H37Rv growth inhibition, no glycerol. The experiment in a line: Confirmatory growth inhibition assay, Mycobacterium tuberculosis H37Rv, absence of glycerol (AID 449764).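 For all read-outs here: growth read after 7 days of incubation.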 The following applies: for IC90: measured here: IC90 growth inhibition.

A value given as a limit tells only on which side of the number the result lay.

For `O=[N+]([O-])c1ccc(Sc2cc[n+]([O-])c3ccccc23)c([N+](=O)[O-])c1`, the IC50 (as a rule, the concentration that gives 50% inhibition) was 40.5 µM and the concentration for an effect of 90% (IC90) (commonly the concentration needed for an effect of 90%) is 56.1 µM.
Consider `COc1cc(NC(=O)c2cnc(N)s2)cc(C(=O)Nc2cccc(C(F)(F)F)c2)c1`, for which the IC50 is 85.9 µM and the IC90 is over 100 µM.
The like results for `Cc1sc2ncnc(Oc3ccc(-n4ccnc4)cc3)c2c1C` were, in that order, 39.1 µM and 61 µM.
In the same order, the values of `Cc1[nH]n(S(=O)(=O)Cc2ccccc2)c(=O)c1N=Nc1ccccc1Cl` are 18.3 µM and 28.7 µM.
The like results for `Cc1c(CN2CCC(CO)(Cc3cccc(C(F)(F)F)c3)CC2)c2ccccc2n1C` were, in that order, 31.2 µM and 39.6 µM.
Regarding `C=C(C)CSc1cc(C)c(C#N)c2nc3ccccc3n12`, the IC50 is 31.5 µM and the IC90 was determined as 52.3 µM.
The like results for `Nc1ccc(S(=O)(=O)Nc2cnc3ccccc3n2)cc1` were, in that order, 23.7 µM and 27.3 µM.
In the same order, the values of `CCc1nnc(NC(=O)CN2CCN(c3nc(-c4ccccc4)cs3)CC2)s1` are 42.6 µM and 92.6 µM.
In the same order, the values of `O=C(OCC(=O)c1c[nH]c2ccccc12)c1cc(Br)ccc1O` are 11.2 µM and 13.1 µM.
In the case of `CCOC(=O)CSc1nnc(-c2ccc(S(=O)(=O)NCc3cccs3)cc2)o1`, the IC50 was 5.1 µM and the IC90 worked out at 7.29 µM.
In the same order, the values of `CC1=NNC(=O)/C1=C\c1cn(-c2ccccc2)nc1-c1ccc(Cl)cc1` are 45.2 µM and 48.8 µM.
In the same order, the values of `O=C(c1cc2cc(Cl)ccc2[nH]1)N1CCN(Cc2ccc3c(c2)OCO3)CC1` are 24.2 µM and over 25 µM.
The like results for `Cc1ccccc1Cn1cc(NC(=O)c2noc(C(C)C)c2[N+](=O)[O-])cn1` were, in that order, 5.01 µM and 8.45 µM.
On to `Cc1cc(C)c2ccc(NN)nc2c1O`, for which the IC50 is 4.04 µM and the IC90 amounted to 4.87 µM.
The like results for `Cc1ccc(NC(=O)Cn2ccsc2=N)c([N+](=O)[O-])c1` were, in that order, 18.5 µM and 34.7 µM.
The like results for `CCOC(=O)CNC(=S)n1cnc(N)n1` were, in that order, 45.8 µM and over 100 µM.
The like results for `Cc1ccc2c(c1)C1C[N+](C)(CC(=O)c3ccc(Cl)cc3Cl)CCC1N2C(=O)c1ccc(F)cc1` (configuration not stated) were, in that order, 32.2 µM and 41 µM.
As to `CC(=O)c1cccc2c(O)c(C3=Nc4ccccc4C3=O)[nH]c12`, the IC50 was 11.5 µM and the IC90 is 12.9 µM.
In the same order, the values of `Cc1ccc(NCCC(=O)c2ccc(Br)cc2)cc1` are 26.4 µM and 43.8 µM.
The like results for `CCc1ccc2nc(N3C(=O)C(O)=C(C(=O)c4ccco4)C3c3cccs3)sc2c1` (configuration not stated) were, in that order, 86.3 µM and 95.2 µM.
`CC(C)NC(=S)N/N=C/c1cc(Br)ccc1O`: the IC50 was 29.5 µM and the IC90 is over 100 µM.
In the same order, the values of `CCCCNC(=S)N/N=C/c1cccc(OCC)c1O` are 10.8 µM and 11.9 µM.
The like results for `c1ccc(-c2nnc(-c3ccccn3)nn2)nc1` were, in that order, 6.07 µM and 6.86 µM.
The like results for `COc1ccc(-c2csc(NC(C)c3nc4cc(Cl)c(N5CCCCC5)cc4n3CCCO)n2)cc1` (configuration not stated) were, in that order, 23 µM and 26.2 µM.
Regarding `Oc1ccc2ccccc2c1N=Nc1nccs1`, the IC50 is 1.96 µM and the IC90 was 3.06 µM.
On to `N#Cc1c(-c2ccccc2)c(-c2ccccc2)nn(CC(=O)NNC(=O)Nc2ccc(Cl)c(Cl)c2)c1=O`, for which the half-inhibitory concentration (IC50) is 47.9 µM and the IC90 came to 54.7 µM.
The like results for `COc1ccc(N=c2cc(-c3ccc(O)cc3)oc3ccccc23)cc1` were, in that order, 23.3 µM and 26.5 µM.
On to `CCCNC1=C(N(C(C)=O)c2cccc(F)c2)C(=O)c2ccccc2C1=O`, for which the IC50 is 12.2 µM and the IC90 amounted to 15.6 µM.
In the same order, the values of `Cc1ccc(C(=O)C[n+]2cc(-c3ccc(C)cc3)n3c2CCCCC3)cc1` are 22.5 µM and 25.4 µM.
In the same order, the values of `CCCCCCOC(=O)C(C#N)c1nc2ccccc2nc1N1CCN(CC)CC1` (configuration not stated) are 21.3 µM and 32.3 µM.
In the same order, the values of `COc1cccc(/C=N/Nc2nc(Nc3ccccc3)nc(-n3nc(C)cc3C)n2)c1O` are under 0.2 µM and 0.25 µM.
With `O=C(c1cc2nc(-c3ccc(F)cc3)cc(C(F)(F)F)n2n1)N1CCCCC1c1cccnc1` (configuration not stated), the IC50 was 20.7 µM and the IC90 amounted to 29.2 µM.
The like results for `Cc1ccc(CN2CCN(/N=C/c3ccc(Cl)c([N+](=O)[O-])c3)CC2)cc1` were, in that order, 39.4 µM and 55.3 µM.
In the same order, the values of `O=C(CCl)Nc1cn(-c2ccccc2)nc1-c1ccccc1` are 0.5 µM and 1.23 µM.
In the same order, the values of `CCOc1cc(/C=N/Nc2nc(Nc3ccccc3)nc(N3CCCCC3)n2)ccc1OCC(=O)O` are 20.5 µM and 27.6 µM.
As for `COc1ccccc1N1CCN(CCCCOc2cccc3ccccc23)CC1`, the 50% inhibitory concentration (IC50) is 33 µM and the IC90 turned out to be 43.5 µM.
Take `Cc1nn(-c2ccccc2)c(Cl)c1C(=O)Nc1nnc(C2CCCCC2)s1`: the IC90 was over 50 µM.
For the compound `Cc1cccc(C(=O)NNC(=S)NC(=O)c2ccccc2)c1`, the IC50 was 1.56 µM and the IC90 was determined as 2.69 µM.
Take `COc1ccc(-c2c[n+]3c4n2CCCCC4=C(c2ccccc2)C3)cc1`: the IC50 was 63.1 µM and the IC90 is 78.7 µM.
In the case of `COc1ccc2nc(NC(=O)C3CCCN(S(=O)(=O)c4cccs4)C3)sc2c1` (configuration not stated), the IC50 is 14.9 µM and the IC90 is 24.2 µM.
In the same order, the values of `COc1ccc(NS(=O)(=O)c2ccc3nc(COc4cccc5ccccc45)[nH]c3c2)cc1` are 62.3 µM and over 100 µM.
The like results for `Oc1ccc(-[n+]2c(-c3ccccc3)cc(-c3ccccc3)cc2-c2ccccc2)cc1` were, in that order, 14.3 µM and 17.2 µM.
In the same order, the values of `Cc1c(CCC(=O)NCCCn2ccnc2)c(=O)oc2c(C)c3occ(C(C)(C)C)c3cc12` are 28 µM and 37.6 µM.
Take `CCc1ccc(-c2cc(C)no2)cc1S(=O)(=O)NCCCN1CCN(c2ccccc2)CC1`: the IC50 is 39 µM and the IC90 stood at 47.2 µM.
On to `O=C(Oc1ccccc1)c1ccccc1OS(=O)(=O)c1ccccc1`, for which the IC50 was 2.37 µM and the 90% effect concentration (IC90) came out at 14.1 µM.
In the same order, the values of `COc1ccc(NC(=O)/C(Cl)=C(/Cl)S(=O)Cc2ccc(C)cc2)cn1` (configuration not stated) are under 0.2 µM and 0.36 µM.
In the same order, the values of `CCN1CCN(Cc2ccc(NC(=O)c3ccc(C)c(/C=C/c4cnc(Nc5cc(N6CCNCC6)nc(C)n5)cn4)c3)cc2C(F)(F)F)CC1` are 66.6 µM and 89.8 µM.
In the same order, the values of `COC(=O)c1[nH]c2cc(OC)ccc2c1NC(=O)CN1CCN(c2cccc(C)c2)C(C)C1` (configuration not stated) are 38.1 µM and 50.9 µM.
With `CCC(=O)c1ccc(OCC(O)CN2CCN(c3cccc(C(F)(F)F)c3)CC2)cc1` (configuration not stated), the IC50 was 19.7 µM and the IC90 amounted to 26.7 µM.
In the same order, the values of `NC(=O)c1ccc(N=Cc2ccc([N+](=O)[O-])s2)cc1` are 16.9 µM and 19.8 µM.
In the case of `Oc1ccc(N=Nc2n[nH]c(-c3ccc(Cl)cc3)n2)cc1`, the IC50 is 12.9 µM and the IC90 amounted to 32.4 µM.
In the same order, the values of `c1ccc2c(c1)CCN(c1nc(CN3CCOCC3)nc3sc4c(c13)CCCC4)C2` are 45.2 µM and 52.7 µM.
In the same order, the values of `O=[N+]([O-])c1cc([N+](=O)[O-])c2cc3ccccc3nc2c1` are under 0.2 µM and 0.64 µM.
In the same order, the values of `COc1ccc(-c2ccc(OC)c([C@H]3[C@@H]4C=CCC[C@@]4(C)C(=O)N3Cc3ccccc3)c2)cc1OC` are 89.5 µM and over 100 µM.
For the compound `CN(C)S(=O)(=O)c1cccc(NC(=O)CSc2cccc3cccnc23)c1`, the IC50 was 60.6 µM and the IC90 amounted to 68.2 µM.
For `N#C/C(=C/c1ccc(Sc2nc3ccccc3[nH]2)o1)c1cccc(Br)c1`, the IC50 was 57.9 µM and the IC90 is over 100 µM.
Compound `Cc1nnc(SCc2ccccc2Cl)n(N)c1=O` yielded an IC90 of over 100 µM.
`O=C(CSc1ccccn1)Nc1nonc1[N+](=O)[O-]`: the IC50 was 5.73 µM and the IC90 worked out at 6.24 µM.
The like results for `CCOc1ccc(C(=O)CCN2CCCCCC2)cc1` were, in that order, 23.7 µM and 26.2 µM.
In the same order, the values of `c1ccc(CN2CCN(c3nc(NCc4ccco4)c4ccccc4n3)CC2)cc1` are 17.2 µM and 22.6 µM.
The like results for `COc1cc(-c2ccc3oc(-c4ccsc4)cc(=O)c3c2)cc(OC)c1OC` were, in that order, 38.1 µM and 53.6 µM.
In the case of `O=C(CCl)N1CCN2C(=O)c3ccccc3C12c1ccc(Cl)cc1` (configuration not stated), the IC50 is 21.9 µM and the IC90 stood at 32.1 µM.
In the same order, the values of `COc1cc(CNCCc2ccccc2)cc(Cl)c1OCc1ccccc1` are 23.8 µM and 26.2 µM.
In the case of `CCOC(=O)CNC(=O)c1sc2ncnc(N3CCc4ccccc4C3)c2c1C`, the IC50 was 79.1 µM and the concentration for an effect of 90% (IC90) came to 97.7 µM.
In the same order, the values of `Cc1ccc(CN2CCC(c3cc(-c4ccc(Cl)cc4)n[nH]3)CC2)cc1` are 11.7 µM and 18.2 µM.
The like results for `CC(C)(C)Nc1nc(NC(C)(C)C)nc(-n2ccnc2)n1` were, in that order, 59.9 µM and 98.5 µM.
For `O=C(CSc1ncnc2nc[nH]c12)c1ccc(Cl)cc1`, the IC50 is 19.1 µM and the IC90 was 25.4 µM.
For the compound `Cc1nn(-c2ccccc2)c2c1C(c1ccc([N+](=O)[O-])cc1)N1C(=N2)C(=O)Nc2ccccc21` (configuration not stated), the IC50 was 55.3 µM and the concentration for an effect of 90% (IC90) was over 100 µM.
As to `N=c1oc2cc(O)ccc2cc1C(=O)Nc1ccc(Br)cc1`, the IC50 is 1.72 µM and the IC90 stood at 3.96 µM.
The like results for `CCCc1ccc2oc(C(=O)N(C)Cc3nccs3)c(C)c2c1` were, in that order, 45 µM and 68.3 µM.
In the same order, the values of `COc1cc(OC)c(OC)cc1CCC(C)NCCC(c1ccccc1)c1ccccc1` (configuration not stated) are 23.4 µM and 26.7 µM.
As for `ClCc1nc2ccccc2c2ccccc12`, the IC50 was 20.6 µM and the IC90 came out at 28.4 µM.

The values above are taken from PubChem BioAssay AID449764 (Southern Research Specialized Biocontainment Screening …, 2010).
